Patent publication US20190231757A1, “COMBINATION OF SPLEEN TYROSINE KINASE INHIBITORS AND OTHER THERAPEUTIC AGENTS” (Takeda Pharmaceutical Company Limited, priority 2016, published 2019)

Columns and labels:
TMD8 DLBCL xenografts = experiment: Antitumor activity in CB17 SCID mice bearing TMD8 DLBCL xenografts, bendamustine combination (Example 3); assay type: in vivo, mouse; conditions: bendamustine 1 mg/kg IV BIW, alone or combined, Day 14
[1] = Day 0 to Day 21; Compound A 30 mg/kg; bendamustine 1 mg/kg; rituximab 1 mg/kg; alone or combined
[2] = Body weight and tolerability, TMD8 bendamustine study (Example 3); conditions: Compound A 60 mg/kg PO QD 14 d, alone or combined
Ly19 xenografts = experiment: Antitumor activity in SCID mice bearing Ly19 xenografts, bendamustine combination (Example 4); assay type: in vivo, mouse; conditions: for Mean Tumor Volume (mm^3) ± SEM at Day 14 / TGI (%): Day 14; for dAUC: vs vehicle
[3] = Body weight and tolerability, Ly19 bendamustine study (Example 4); conditions: for body weight Change (%), Day 3: Day 3 vs Day 0; for body weight Change (%), Day 7: Day 7 vs Day 0; for body weight Change (%), Day 10: Day 10 vs Day 0; for body weight Change (%), Day 14: Day 14 vs Day 0
[4] = tested on: OCI-Ly10 human DLBCL xenografts; experiment: Antitumor activity in SCID mice bearing OCI-Ly10 human DLBCL xenografts, ibrutinib or bendamustine combination (Example 5); assay type: in vivo, mouse; conditions: Day 21, Compound A 60 mg/kg PO QD, ibrutinib 6 mg/kg PO QD, bendamustine 1 mg/kg IV BIW (6 doses), alone or combined with Compound A
[5] = tested on: OCI-Ly10 human lymphoma xenografts; experiment: Antitumor activity in SCID mice bearing OCI-Ly10 human lymphoma xenografts, bendamustine and rituximab (Example 6); assay type: in vivo, mouse; conditions: Day 21; Compound A 30 mg/kg PO QD x21; bendamustine 1 mg/kg IV BIW; rituximab 1 mg/kg IV QW x3; alone or combined
[6] = tested on: OCI-Ly10 human lymphoma xenografts; experiment: Antitumor activity in SCID mice bearing OCI-Ly10 human lymphoma xenografts, lenalidomide combination (Example 10); assay type: in vivo, mouse; conditions: alone or combined
[7] = Day 0 to Day 21; Compound A 60 mg/kg; lenalidomide 10 mg/kg; alone or combined
[8] = Compound A 60 mg/kg PO QD x14, bendamustine 1.0 mg/kg IV BIW x2, alone or combined
[9] = bendamustine 2.0 mg/kg IV BIW x2, alone or with Compound A 60 mg/kg PO QD x14
[10] = Compound A 60 mg/kg, bendamustine 1.0 mg/kg, alone or combined
[11] = bendamustine 2.0 mg/kg, alone or with Compound A 60 mg/kg

## Cn1c(CCCC(=O)O)nc2cc(N(CCCl)CCCl)ccc21 [bendamustine]
TMD8 DLBCL xenografts; Compound A 60 mg/kg PO QD 14 d
  Mean Tumor Volume (mm^3) ± SEM: 1,529.2 ± 275.9 mm^3
TMD8 DLBCL xenografts; Compound A 60 mg/kg PO QD
  T/C: 0.87
  TGI (%): 13.4%
[1]
  Maximum mean % BWL: 0%
[2]; bendamustine 1 mg/kg IV BIW 14 d, maximum change within treatment period
  % BW Change (Day Maximum): 13.1 (14) %
[2]; bendamustine 1 mg/kg IV BIW
  Number of animals removed: 0
Ly19 xenografts; [8]
  Mean Tumor Volume (mm^3) ± SEM at Day 14: 2092.9 ± 175.8 mm^3
  TGI (%): 16.2%
Ly19 xenografts; [9]
  Mean Tumor Volume (mm^3) ± SEM at Day 14: 2029.8 ± 248.8 mm^3
  TGI (%): 18.7%
Ly19 xenografts; [10]
  dAUC: 10.9
Ly19 xenografts; [11]
  dAUC: 11.9
[3]; Day 0, Compound A 60 mg/kg PO QD x14, bendamustine 1.0 mg/kg IV BIW x2, alone or combined, mean of 8
  animal body weight (g), Day 0: 19.7 g
[3]; Day 3, Compound A 60 mg/kg, bendamustine 1.0 mg/kg, alone or combined
  animal body weight (g), Day 3: 19.9 g
[3]; [10]
  body weight Change (%), Day 3: +0.9%
  body weight Change (%), Day 7: +3.7%
  animal body weight (g), Day 10: 21.2 g
  body weight Change (%), Day 10: +7.7%
  animal body weight (g), Day 14: 22.3 g
  body weight Change (%), Day 14: +13.1%
[3]; [11]
  body weight Change (%), Day 3: +2.0%
  body weight Change (%), Day 7: +3.2%
  animal body weight (g), Day 10: 21.7 g
  body weight Change (%), Day 10: +6.2%
  animal body weight (g), Day 14: 22.6 g
  body weight Change (%), Day 14: +10.8%
[4]
  TGI: 43.7%
[4]; listed as Bendamustine
  TGI: 43.7%
[5]
  TGI: 49.7%

## Nc1cccc2c1CN(C1CCC(=O)NC1=O)C2=O (centres unmarked) [lenalidomide]
[6]; Day 21, Compound A 60 mg/kg PO QD x21, lenalidomide 10 mg/kg PO QD x21
  TGI: 21.1%
[6]; vs vehicle, Compound A 60 mg/kg, lenalidomide 10 mg/kg
  ΔAUC: 15.2 (p = 0.014)
[7]
  Mean maximum % BWL: 0%
